These results are taken from publication PMC9299109 (Iubmb Life, 2021).

The target of test [1] is T1, BoFADS (FAD synthase from Brucella ovis) (Brucella ovis, UniProt A0A0H3AW96). Description: biochemical.
In test [2] the target is T1, BoFADS (FAD synthase from Brucella ovis).

The term Kd denotes the constant that tells how readily two partners part at equilibrium.

SMILES strings stand for the structures.

T1 sequence (A0A0H3AW96 1-329): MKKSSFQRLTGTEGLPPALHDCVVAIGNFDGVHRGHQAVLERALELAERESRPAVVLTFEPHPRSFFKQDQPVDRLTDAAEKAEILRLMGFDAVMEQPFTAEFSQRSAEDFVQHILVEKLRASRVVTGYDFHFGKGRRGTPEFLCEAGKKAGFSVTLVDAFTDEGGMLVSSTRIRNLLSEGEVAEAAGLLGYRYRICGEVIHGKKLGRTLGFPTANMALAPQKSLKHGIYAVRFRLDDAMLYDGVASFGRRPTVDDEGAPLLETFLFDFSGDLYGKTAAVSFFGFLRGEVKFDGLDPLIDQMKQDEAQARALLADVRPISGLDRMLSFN

For the compound `Cc1cc2nc3c(=O)[nH]c(=O)nc-3n(C[C@H](O)[C@H](O)[C@H](O)CO)c2cc1C` [RF, riboflavin], binding in test [1] was characterised by a dissociation constant (Kd) of 410 ± 60 nM.

Regarding `Cc1cc2nc3c(=O)[nH]c(=O)nc-3n(C[C@H](O)[C@H](O)[C@H](O)COP(=O)(O)O)c2cc1C` [FMN, flavin mononucleotide], the Kd in test [1] was 290 ± 100 nM.

With `Nc1ncnc2c1ncn2[C@@H]1O[C@H](COP(=O)(O)OP(=O)(O)O)[C@@H](O)[C@H]1O` [ADP], in test [2], the “visible difference spectroscopy, FMN titration with ADP” value was “titrated with oxidized FMN in the presence of ADP but not in its absence”.
